28 compounds from patent publication US6924285B2, “Bicyclic heterocyclic compounds, pharmaceutical compositions containing these compounds, their use and process for preparing them” (Boehringer Ingelheim Pharma GmbH & Co., priority 2002, dated 2005) can be followed below.

The target of one data set is T1, human EGF-receptor kinase (Homo sapiens, UniProt P00533).
T1 construct: GST; made in house; host or cells: Sf9 insect cells (baculovirus)
T1 sequence (P00533 688-1210): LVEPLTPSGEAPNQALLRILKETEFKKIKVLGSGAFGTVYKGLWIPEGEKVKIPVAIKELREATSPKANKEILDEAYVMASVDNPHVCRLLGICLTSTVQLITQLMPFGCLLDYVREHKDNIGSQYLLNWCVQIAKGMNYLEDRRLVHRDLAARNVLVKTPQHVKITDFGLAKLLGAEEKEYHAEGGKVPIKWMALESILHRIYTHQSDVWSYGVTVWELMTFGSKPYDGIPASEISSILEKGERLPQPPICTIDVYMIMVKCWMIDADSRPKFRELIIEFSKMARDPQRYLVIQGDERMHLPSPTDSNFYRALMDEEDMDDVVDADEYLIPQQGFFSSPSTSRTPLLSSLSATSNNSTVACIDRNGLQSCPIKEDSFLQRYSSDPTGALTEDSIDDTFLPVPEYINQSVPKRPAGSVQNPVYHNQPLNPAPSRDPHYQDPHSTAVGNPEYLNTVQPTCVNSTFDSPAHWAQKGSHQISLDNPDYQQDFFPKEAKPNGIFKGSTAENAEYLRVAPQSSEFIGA
As to the kind of experiment: Inhibition of human EGF-receptor kinase (enzyme assay, ELISA read-out). The conditions noted are these: cytoplasmic tyrosine kinase domain as GST fusion protein, substrate pEY/bio-pEY, 30 minutes at ambient temperature. In kind it is biochemical. How it is done: The inhibition of human EGF-receptor kinase was determined using the cytoplasmic tyrosine kinase domain (methionine 664 to alanine 1186 based on the sequence published in Nature 309 (1984), 418). For this the protein was expressed in Sf9 insect cells as GST fusion protein using the Baculovirus expression system.
The enzyme activity was measured in the presence or absence of the test compounds in serial dilutions. The polymer pEY (4:1) obtained from SIGMA was used as the substrate. Biotinylated pEY (bio-pEY) was added as the tracer substrate. 100 μl of reaction solution contained 10 μl of the inhibitor in 50% DMSO, 20 μl of the substrate solution (200 mM HEPES pH 7.4, 50 mM magnesium acetate, 2.5 mg/ml poly(EY), 5 μg/ml bio-pEY) and 20 μl of enzyme preparation. The enzyme reaction was started by the addition of 50 μl of a 100 μM ATP solution in 10 mM of magnesium chloride. The dilution of the enzyme preparation was adjusted so that the incorporation of phosphate in the bio-pEY was linear in terms of time and quantity of enzyme. The enzyme preparation was diluted in 20 mM HEPES pH 7.4, 1 mM EDTA, 130 mM common salt, 0.05% Triton X-100, 1 mM DTT and 10% glycerol.
The enzyme assays were carried out at ambient temperature over a period of 30 minutes and ended by the addition of 50 μl of a stopping solution (250 mM EDTA in 20 mM HEPES pH 7.4). 100 μl were placed on a streptavidine-coated microtitre plate and incubated for 60 minutes at ambient temperature. Then the plate was washed with 200 μl of a wash solution (50 mM Tris, 0.05% Tween 20). After the addition of 100 μl of an HRPO-labelled anti-PY antibody (PY20H Anti-PTyr:HRP made by Transduction Laboratories, 250 ng/ml) the preparation was incubated for 60 minutes. Then the microtitre plate was washed three times with 200 μl of wash solution. The samples were then combined with 100 μl of a TMB-peroxidase solution (A:B=1:1, Kirkegaard Perry Laboratories). After 10 minutes the reaction was stopped. The extinction was measured at OD450 nm with an ELISA reader. All the results were measured three times.
The data were adapted by iterative calculation using an analytical pogramme for sigmoidal curves (Graph Pad Prism Version 3.0) with a variable Hill pitch. […] The active substance concentration which inhibits the activity of EGF receptor kinase by 50% (IC50) was derived from the curves.
In general terms: An ELISA detects its analyte on a solid surface through an enzyme-linked reagent.
For `COc1cc2ncnc(Nc3ccc(F)c(Cl)c3)c2cc1OC1CCN(C(=O)OC(C)(C)C)CC1` [1(5), 4-[(3-chloro-4-fluoro-phenyl)amino]-6-[1-(tert.-butyloxycarbonyl)-piperidin-4-yloxy]-7-methoxy-quinazoline], the IC50 (as a rule, the concentration that gives 50% inhibition) was 600 pM. Consider `COc1cc2ncnc(Nc3ccc(F)c(Cl)c3)c2cc1O[C@H]1CC[C@H](NC(=O)N2CCOCC2)CC1` [3(17), 4-[(3-chloro-4-fluoro-phenyl)amino]-6-{trans-4-[(morpholin-4-yl)carbonylamino]-cyclohexan-1-yloxy}-7-methoxy-quinazoline], for which the IC50 was 300 pM. Take `COc1cc2ncnc(Nc3ccc(F)c(Cl)c3)c2cc1O[C@H]1CC[C@H](N)CC1` [2(1), 4-[(3-chloro-4-fluoro-phenyl)amino]-6-(trans-4-amino-cyclohexan-1-yloxy)-7-methoxy-quinazoline]: the IC50 turned out to be 160 pM. Take `COc1cc2ncnc(Nc3ccc(F)c(Cl)c3)c2cc1OC1CCN(C#N)CC1` [3(9), 4-[(3-chloro-4-fluoro-phenyl)amino]-6-(1-cyano-piperidin-4-yloxy)-7-methoxy-quinazoline]: the IC50 was found to be 200 pM. With `COc1cc2ncnc(Nc3ccc(F)c(Cl)c3)c2cc1O[C@H]1CC[C@H](NC(=O)OC(C)(C)C)CC1` [1(4), 4-[(3-chloro-4-fluoro-phenyl)amino]-6-[trans-4-(tert.-butyloxycarbonylamino)-cyclohexan-1-yloxy]-7-methoxy-quinazoline], the IC50 came out at 600 pM. Turning to `COc1cc2ncnc(Nc3ccc(F)c(Cl)c3)c2cc1OC1CCNCC1` [Example 2(2), 4-[(3-chloro-4-fluoro-phenyl)amino]-6-(piperidin-4-yloxy)-7-methoxy-quinazoline x trifluoroacetic acid], the IC50 turned out to be 220 pM. Still for that read-out and setting: with `COc1cc2ncnc(Nc3ccc(F)c(Cl)c3)c2cc1O[C@H]1CC[C@@H](NC(=O)OC(C)(C)C)CC1` [1(2), 4-[(3-chloro-4-fluoro-phenyl)amino]-6-[cis-4-(tert.-butyloxycarbonylamino)-cyclohexan-1-yloxy]-7-methoxy-quinazoline] the figure was 2000 pM.

As for `COc1cc2ncnc(Nc3ccc(F)c(Cl)c3)c2cc1OC1CCCOC1` (stereo not shown) [1(6), 4-[(3-chloro-4-fluoro-phenyl)amino]-6-(tetrahydropyran-3-yloxy)-7-methoxy-quinazoline], the IC50 was found to be 690 pM.

Regarding `COc1cc2ncnc(Nc3ccc(F)c(Cl)c3)c2cc1O[C@H]1CC[C@H](NS(=O)(=O)N(C)C)CC1` [3(16), 4-[(3-chloro-4-fluoro-phenyl)amino]-6-{trans-4-[(dimethylamino)sulphonylamino]-cyclohexan-1-yloxy}-7-methoxy-quinazoline], the IC50 amounted to 1000 pM.

As to `COc1cc2ncnc(Nc3ccc(F)c(Cl)c3)c2cc1O[C@@H]1CCOC1` [1(3), 4-[(3-chloro-4-fluoro-phenyl)amino]-6-((R)-tetrahydrofuran-3-yloxy)-7-methoxy-quinazoline], the IC50 came to 1100 pM. On to `COc1cc2ncnc(Nc3ccc(F)c(Cl)c3)c2cc1OC1CCN(CCNC(C)=O)CC1` [3(15), 4-[(3-chloro-4-fluoro-phenyl)amino]-6-[1-(2-acetylamino-ethyl)-piperidin-4-yloxy]-7-methoxy-quinazoline], for which the IC50 turned out to be 1000 pM. Turning to `COc1cc2ncnc(Nc3ccc(F)c(Cl)c3)c2cc1OC1CCN(S(=O)(=O)N2CCOCC2)CC1` [3(11), 4-[(3-chloro-4-fluoro-phenyl)amino]-6-{1-[(morpholin-4-yl)sulphonyl]-piperidin-4-yloxy}-7-methoxy-quinazoline], the IC50 is 100 pM.

`COc1cc2ncnc(Nc3ccc(F)c(Cl)c3)c2cc1O[C@H]1CC[C@H](NS(=O)(=O)CCCN2CCOCC2)CC1` [4(1), 4-[(3-chloro-4-fluoro-phenyl)amino]-6-(trans-4-{[3-(morpholin-4-yl)-propyl]sulphonylamino}-cyclohexan-1-yloxy)-7-methoxy-quinazoline]: the IC50 was found to be 160 pM.

In the case of `COc1cc2ncnc(Nc3ccc(F)c(Cl)c3)c2cc1O[C@H]1CC[C@H](NS(=O)(=O)N2CCOCC2)CC1` [3(18), 4-[(3-chloro-4-fluoro-phenyl)amino]-6-{trans-4-[(morpholin-4-yl)sulphonylamino]-cyclohexan-1-yloxy}-7-methoxy-quinazoline], the IC50 is 400 pM. On to `CS(=O)(=O)NCCOc1cc2ncnc(Nc3ccc(F)c(Cl)c3)c2cc1OC1CCOCC1` [3(21), 4-[(3-chloro-4-fluoro-phenyl)amino]-6-(tetrahydropyran-4-yloxy)-7-(2-methanesulphonylamino-ethoxy)-quinazoline], for which the IC50 is 400 pM. Consider `COCCOc1cc2ncnc(Nc3ccc(F)c(Cl)c3)c2cc1OC1CCOCC1` [7(5), 4-[(3-chloro-4-fluoro-phenyl)amino]-6-(tetrahydropyran-4-yloxy)-7-(2-methoxy-ethoxy)-quinazoline], for which the concentration for half-maximal inhibition (IC50) came out at 1000 pM. As to `CC(=O)NCCOc1cc2ncnc(Nc3ccc(F)c(Cl)c3)c2cc1OC1CCOCC1` [3(20), 4-[(3-chloro-4-fluoro-phenyl)amino]-6-(tetrahydropyran-4-yloxy)-7-(2-acetylamino-ethoxy)-quinazoline], the IC50 worked out at 1000 pM. In the case of `COc1cc2ncnc(Nc3ccc(F)c(Cl)c3)c2cc1OC1CCOCC1` [1(1), 4-[(3-chloro-4-fluoro-phenyl)amino]-6-(tetrahydropyran-4-yloxy)-7-methoxy-quinazoline], the IC50 worked out at 120 pM. In the case of `COc1cc2ncnc(Nc3ccc(F)c(Cl)c3)c2cc1OC1CCN(S(C)(=O)=O)CC1` [3(2), 4-[(3-chloro-4-fluoro-phenyl)amino]-6-(1-methanesulphonyl-piperidin-4-yloxy)-7-methoxy-quinazoline], the IC50 was 220 pM. Still for that read-out and setting: with `COc1cc2ncnc(Nc3ccc(F)c(Cl)c3)c2cc1O[C@H]1CC[C@H](NS(C)(=O)=O)CC1` [3(1), 4-[(3-chloro-4-fluoro-phenyl)amino]-6-(trans-4-methanesulphonylamino-cyclohexan-1-yloxy)-7-methoxy-quinazoline] the figure was 140 pM; with `COc1cc2ncnc(Nc3ccc(F)c(Cl)c3)c2cc1O[C@H]1CC[C@@H](NS(=O)(=O)CCCN2CCOCC2)CC1` [Example 4, 4-[(3-chloro-4-fluoro-phenyl)amino]-6-(cis-4-{[3-(morpholin-4-yl)-propyl]sulphonylamino}-cyclohexan-1-yloxy)-7-methoxy-quinazoline], 410 pM; with `COc1cc2ncnc(Nc3ccc(F)c(Cl)c3)c2cc1OC1CCN(C(=O)N2CCOCC2)CC1` [3(7), 4-[(3-chloro-4-fluoro-phenyl)amino]-6-{1-[(morpholin-4-yl)carbonyl]-piperidin-4-yloxy}-7-methoxy-quinazoline], 700 pM. With `COCC(=O)N1CCC(Oc2cc3c(Nc4ccc(F)c(Cl)c4)ncnc3cc2OC)CC1` [3(8), 4-[(3-chloro-4-fluoro-phenyl)amino]-6-{1-[(methoxymethyl)carbonyl]-piperidin-4-yloxy}-7-methoxy-quinazoline], the IC50 worked out at 600 pM.

Test system in another data set: not given
Assay: not given
Conditions: not given
On to `COc1cc2ncnc(Nc3ccc(F)c(Cl)c3)c2cc1O[C@H]1CCOC1` [Example 1, 4-[(3-chloro-4-fluoro-phenyl)amino]-6-((S)-tetrahydrofuran-3-yloxy)-7-methoxy-quinazoline], for which the melting point – broadly, the temperature of the solid-liquid transition – came out at 184 °C. For the compound `COc1cc2ncnc(Nc3ccc(F)c(Cl)c3)c2cc1O[C@H]1CCNC1.Cl.Cl`, the melting point was 251 °C.

On to `CN(C)C(=O)CN1CCC(Oc2ccc3ncnc(Nc4ccc(F)c(Cl)c4)c3c2)CC1` [Example 10, 4-[(3-chloro-4-fluoro-phenyl)amino]-6-{1-[(dimethylamino)carbonylmethyl]-piperidin-4-yloxy}-quinazoline], for which the melting point was found to be 233 °C. In turn, `Fc1ccc(Nc2ncnc3cc(OCCCN4CCOCC4)c(OC4CCOCC4)cc23)cc1Cl` [Example 7, 4-[(3-chloro-4-fluoro-phenyl)amino]-6-(tetrahydropyran-4-yloxy)-7-[3-(morpholin-4-yl)-propyloxy]-quinazoline] came in with a melting point of 205 °C. On the same count and under the same terms, with `COc1cc2ncnc(Nc3ccc(F)c(Cl)c3)c2cc1OC1CCN(C(=O)N2CCCOCC2)CC1` [Example 12, 4-[(3-chloro-4-fluoro-phenyl)amino]-6-{1-[([1,4]oxazepan-4-yl)carbonyl)-piperidin-4-yloxy}-7-methoxy-quinazoline] the figure was 171 °C.
